Results from ChEMBL document CHEMBL3885881, “DrugMatrix”.

Organism: Rattus norvegicus
Assay: DrugMatrix - Regimen: Daily Repeat
Assay type: toxicity, organism-based, Sprague-Dawley
Design: regimen Daily Repeat, gender Male, age 6-8 weeks
Conditions: in vivo, po, route oral GAVAGE, […]; for ABSOLUTE BASOPHIL / ABSOLUTE EOSINOPHIL / ABSOLUTE LYMPHOCYTE / ABSOLUTE MONOCYTE / ABSOLUTE SEGMENTED NEUTROPHIL / BASOPHIL / EOSINOPHIL / ERYTHROCYTE COUNT / HEMATOCRIT / HEMOGLOBIN / LEUKOCYTE COUNT / LYMPHOCYTE / MEAN CORPUSCULAR HEMOGLOBIN / MEAN CORPUSCULAR HEMOGLOBIN CONCENTRATION / MEAN CORPUSCULAR VOLUME / MONOCYTE / NEUTROPHIL / NUCLEATED RED BLOOD CELLS / PLATELET COUNT: tissue Blood; for ALANINE AMINOTRANSFERASE / ALBUMIN / ALKALINE PHOSPHATASE / ASPARTATE AMINOTRANSFERASE / BLOOD UREA NITROGEN / CARBON DIOXIDE / CHLORIDE / CHOLESTEROL / CREATINE PHOSPHOKINASE / CREATININE / GLUCOSE / LACTATE DEHYDROGENASE / LIPASE / PHOSPHORUS / POTASSIUM / SODIUM / TOTAL BILIRUBIN / TOTAL PROTEIN / URIC ACID: tissue Plasma
[1] = 0 mg/kg, 72 h, dose level Control, time 3 day
[2] = 0 mg/kg, 120 h, dose level Control, time 5 day
[3] = 3 mg/kg, 72 h, dose level Low, time 3 day

CC#C[C@]1(O)CC[C@H]2[C@@H]3CCC4=CC(=O)CCC4=C3[C@@H](c3ccc(N(C)C)cc3)C[C@@]21C [MIFEPRISTONE]
ABSOLUTE BASOPHIL [1]: 0 CELLS/uL
ABSOLUTE EOSINOPHIL [1]: 14 CELLS/uL
ABSOLUTE LYMPHOCYTE [1]: 11144.67 CELLS/uL
ABSOLUTE MONOCYTE [1]: 22.5 CELLS/uL
ABSOLUTE SEGMENTED NEUTROPHIL [1]: 535.5 CELLS/uL
BASOPHIL [1]: 0%
EOSINOPHIL [1]: 0.17%
ERYTHROCYTE COUNT [1]: 5.08 x10E6/uL
HEMATOCRIT [1]: 32.32%
HEMOGLOBIN [1]: 12.87 G/DL
LEUKOCYTE COUNT [1]: 11.72 x10E3/uL
LYMPHOCYTE [1]: 94.67%
MEAN CORPUSCULAR HEMOGLOBIN [1]: 25.37 pg
MEAN CORPUSCULAR HEMOGLOBIN CONCENTRATION [1]: 39.85 G/DL
MEAN CORPUSCULAR VOLUME [1]: 63.58 fL
MONOCYTE [1]: 0.17%
NEUTROPHIL [1]: 5%
NUCLEATED RED BLOOD CELLS [1]: 0 /100WBC
PLATELET COUNT [1]: 1084 x10E3/uL
ALANINE AMINOTRANSFERASE [1]: 67.5 u/L
ALBUMIN [1]: 4.02 G/DL
ALKALINE PHOSPHATASE [1]: 374.17 u/L
ASPARTATE AMINOTRANSFERASE [1]: 83.5 u/L
BLOOD UREA NITROGEN [1]: 14.5 mg/dL
CARBON DIOXIDE [1]: 30 mmol/L
CHLORIDE [1]: 100.5 MEQ/L
CHOLESTEROL [1]: 71.33 mg/dL
CREATINE PHOSPHOKINASE [1]: 268.33 u/L
CREATININE [1]: 0.16 mg/dL
GLUCOSE [1]: 170.5 mg/dL
LACTATE DEHYDROGENASE [1]: 81.17 u/L
LIPASE [1]: 16.67 u/L
PHOSPHORUS [1]: 10.07 mg/dL
POTASSIUM [1]: 5.03 MEQ/L
SODIUM [1]: 142.92 MEQ/L
TOTAL BILIRUBIN [1]: 0.17 mg/dL
TOTAL PROTEIN [1]: 5.63 G/DL
URIC ACID [1]: 0.5 mg/dL
ABSOLUTE BASOPHIL [2]: 0 CELLS/uL
ABSOLUTE EOSINOPHIL [2]: 37.5 CELLS/uL
ABSOLUTE LYMPHOCYTE [2]: 8049.5 CELLS/uL
ABSOLUTE MONOCYTE [2]: 82.83 CELLS/uL
ABSOLUTE SEGMENTED NEUTROPHIL [2]: 646.83 CELLS/uL
BASOPHIL [2]: 0%
EOSINOPHIL [2]: 0.5%
ERYTHROCYTE COUNT [2]: 5.36 x10E6/uL
HEMATOCRIT [2]: 33.9%
HEMOGLOBIN [2]: 13.02 G/DL
LEUKOCYTE COUNT [2]: 8.82 x10E3/uL
LYMPHOCYTE [2]: 90.17%
MEAN CORPUSCULAR HEMOGLOBIN [2]: 24.32 pg
MEAN CORPUSCULAR HEMOGLOBIN CONCENTRATION [2]: 38.42 G/DL
MEAN CORPUSCULAR VOLUME [2]: 63.32 fL
MONOCYTE [2]: 1.17%
NEUTROPHIL [2]: 8.17%
NUCLEATED RED BLOOD CELLS [2]: 0.17 /100WBC
PLATELET COUNT [2]: 1231.5 x10E3/uL
ALANINE AMINOTRANSFERASE [2]: 62 u/L
ALBUMIN [2]: 3.97 G/DL
ALKALINE PHOSPHATASE [2]: 303.67 u/L
ASPARTATE AMINOTRANSFERASE [2]: 84.5 u/L
BLOOD UREA NITROGEN [2]: 14.83 mg/dL
CARBON DIOXIDE [2]: 31.83 mmol/L
CHLORIDE [2]: 97 MEQ/L
CHOLESTEROL [2]: 68.83 mg/dL
CREATINE PHOSPHOKINASE [2]: 411.33 u/L
CREATININE [2]: 0.16 mg/dL
GLUCOSE [2]: 170.17 mg/dL
LACTATE DEHYDROGENASE [2]: 88.5 u/L
LIPASE [2]: 9.5 u/L
PHOSPHORUS [2]: 9.98 mg/dL
POTASSIUM [2]: 5.72 MEQ/L
SODIUM [2]: 141.62 MEQ/L
TOTAL BILIRUBIN [2]: 0.1 mg/dL
TOTAL PROTEIN [2]: 5.67 G/DL
URIC ACID [2]: 0.52 mg/dL
ABSOLUTE BASOPHIL [3]: 0 CELLS/uL
ABSOLUTE EOSINOPHIL [3]: 0 CELLS/uL
ABSOLUTE LYMPHOCYTE [3]: 9937.33 CELLS/uL
ABSOLUTE MONOCYTE [3]: 98.67 CELLS/uL
ABSOLUTE SEGMENTED NEUTROPHIL [3]: 897.33 CELLS/uL
BASOPHIL [3]: 0%
EOSINOPHIL [3]: 0%
ERYTHROCYTE COUNT [3]: 4.8 x10E6/uL
HEMATOCRIT [3]: 31.67%
HEMOGLOBIN [3]: 12.47 G/DL
LEUKOCYTE COUNT [3]: 10.93 x10E3/uL
LYMPHOCYTE [3]: 91.33%
MEAN CORPUSCULAR HEMOGLOBIN [3]: 25.97 pg
MEAN CORPUSCULAR HEMOGLOBIN CONCENTRATION [3]: 39.4 G/DL
MEAN CORPUSCULAR VOLUME [3]: 66.03 fL
MONOCYTE [3]: 1%
NEUTROPHIL [3]: 7.67%
NUCLEATED RED BLOOD CELLS [3]: 0 /100WBC
PLATELET COUNT [3]: 1024.33 x10E3/uL
ALANINE AMINOTRANSFERASE [3]: 67 u/L
ALBUMIN [3]: 3.93 G/DL
ALKALINE PHOSPHATASE [3]: 384 u/L
ASPARTATE AMINOTRANSFERASE [3]: 83 u/L
BLOOD UREA NITROGEN [3]: 13 mg/dL
CARBON DIOXIDE [3]: 30.33 mmol/L
CHLORIDE [3]: 100.67 MEQ/L
CHOLESTEROL [3]: 68 mg/dL
CREATINE PHOSPHOKINASE [3]: 246.67 u/L
CREATININE [3]: 0.12 mg/dL
GLUCOSE [3]: 171 mg/dL
LACTATE DEHYDROGENASE [3]: 78.33 u/L
LIPASE [3]: 10 u/L
PHOSPHORUS [3]: 10.13 mg/dL
POTASSIUM [3]: 5.79 MEQ/L
SODIUM [3]: 143.5 MEQ/L
TOTAL BILIRUBIN [3]: 0.17 mg/dL
TOTAL PROTEIN [3]: 5.6 G/DL
URIC ACID [3]: 0.57 mg/dL
